Our source for the EC50 values is patent US20240368174A1, “Antiviral Heterocyclic Compounds” (Enanta Pharmaceuticals, Inc., priority 2023, published 2024).

A value given as a limit tells only on which side of the number the result lay.

The test concerns HMPV clinical isolate A2 strain TN 94-49. Briefly: HMPV antiviral assay, Method 2 (LLC-MK2 cells with CP-100-356, ATP-Lite). In kind it is cell-based. Conditions: human metapneumovirus; hMPV A2 TN/94-49, LLC-MK2 cells with CP-100-356, Method 2. Summed up:
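LLC-MK2 rhesus kidney cells (5,000/well) infected in suspension with HMPV A2 TN 94-49 at MOI 0.16, in serum-free medium with final 2 μg/mL TPCK-trypsin and 2 μM CP-100-356. Compounds tested in duplicate from 200 nM, 2.5-fold, 10 points; 7 days at 37 °C. Cell health by ATP-Lite luminescence; EC50 by four-parameter fit.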
With `COc1nccc(-c2nc([C@@](O)(CNC(=O)c3cc(OC)c4nc(C(F)F)oc4c3)C(F)(F)F)cc3c2OC[C@]3(C)C(N)=O)c1Cl` [Example 547], the EC50 (in general, the concentration needed to bring the measured effect to its halfway point) was greater than 200 nM.
As for `C[C@]1(C(N)=O)COc2c1cc([C@@](O)(CNC(=O)c1cc(Cl)c3nn(C4CC4)cc3c1)C(F)(F)F)nc2-c1ccnc(C(F)F)c1Cl` [Example 549], the figure is less than 200 nM; as for `COc1cc(C(=O)NC[C@](O)(c2cc3c(c(-c4ccnc(C(F)F)c4Cl)n2)OC[C@]3(C)C(N)=O)C(F)(F)F)cc2sc(C)nc12` [Example 551], less than 200 nM.
The same measure for `COc1cc(C(=O)NC[C@](O)(c2cc3c(c(-c4ccnc(C(F)F)c4Cl)n2)OC[C@]3(C)C(N)=O)C(F)(F)F)cc2oc(C(F)F)nc12` [Example 552]: less than 200 nM; for `COc1nccc(-c2nc([C@@](O)(CNC(=O)c3cc(OC)c4nn(C5CC5)cc4c3)c3ccccc3)cc3c2OC[C@]3(C)C(N)=O)c1Cl` [Example 553]: less than 200 nM.
The same measure for `COc1nccc(-c2nc([C@@](O)(CNC(=O)c3cc(OC)c4nn(C(F)F)cc4c3)c3ccccc3)cc3c2OC[C@]3(C)C(N)=O)c1Cl` [Example 554]: less than 200 nM.
As for `COc1nccc(-c2nc([C@@](O)(CNC(=O)c3cc(OC)c4nn(C5(F)CC5)cc4c3)c3ccccc3)cc3c2OC[C@]3(C)C(N)=O)c1Cl` [Example 555], the concentration for a half-maximal effect (EC50) was less than 200 nM.
As for `COc1nccc(-c2nc([C@@](O)(CNC(=O)c3cc(OC)c4nc(C5CC5)oc4c3)c3ccccc3)cc3c2OC[C@]3(C)C(N)=O)c1Cl` [Example 556], the figure is less than 200 nM; as for `COc1nccc(-c2nc([C@@](O)(CNC(=O)c3cc(OC)c4nc(C(F)F)oc4c3)c3ccccc3)cc3c2OC[C@]3(C)C(N)=O)c1Cl` [Example 557], less than 200 nM.
The same measure for `COc1nccc(-c2nc([C@@](O)(CNC(=O)c3cc(OC)c4nn(C(F)F)cc4c3)c3cccc(F)c3)cc3c2OC[C@]3(C)C(N)=O)c1Cl` [Example 558]: less than 200 nM.
As for `COc1nccc(-c2nc([C@@](O)(CNC(=O)c3cc(OC)c4nn(C5(F)CC5)cc4c3)c3cccc(F)c3)cc3c2OC[C@]3(C)C(N)=O)c1Cl` [Example 559], the figure is less than 200 nM; as for `COc1nccc(-c2nc([C@@](O)(CNC(=O)c3cc(OC)c4nc(C5CC5)oc4c3)c3cccc(F)c3)cc3c2OC[C@]3(C)C(N)=O)c1Cl` [Example 560], less than 200 nM.
In turn, `COc1nccc(-c2nc([C@@](O)(CNC(=O)c3cc(OC)c4nc(C(F)F)oc4c3)c3cccc(F)c3)cc3c2OC[C@]3(C)C(N)=O)c1Cl` [Example 561] showed an EC50 of less than 200 nM.
For the compound `COc1cc(C(=O)NC[C@@](O)(c2ccccc2)c2cc3c(c(-c4ccnc(C(F)F)c4Cl)n2)OC[C@]3(C)C(N)=O)cc2cn(C3CC3)nc12` [Example 562], the EC50 was less than 200 nM.
As for `COc1cc(C(=O)NC[C@@](O)(c2ccccc2)c2cc3c(c(-c4ccnc(C(F)F)c4Cl)n2)OC[C@]3(C)C(N)=O)cc2cn(C3(F)CC3)nc12` [Example 563], the figure is less than 200 nM.
As for `COc1cc(C(=O)NC[C@@](O)(c2ccccc2)c2cc3c(c(-c4ccnc(C(F)F)c4Cl)n2)OC[C@]3(C)C(N)=O)cc2oc(C3CC3)nc12` [Example 564], the figure is less than 200 nM; as for `COc1cc(C(=O)NC[C@@](O)(c2cccc(F)c2)c2cc3c(c(-c4ccnc(C(F)F)c4Cl)n2)OC[C@]3(C)C(N)=O)cc2cn(C3CC3)nc12` [Example 565], less than 200 nM; as for `COc1cc(C(=O)NC[C@@](O)(c2cccc(F)c2)c2cc3c(c(-c4ccnc(C(F)F)c4Cl)n2)OC[C@]3(C)C(N)=O)cc2cn(C3(F)CC3)nc12` [Example 566], less than 200 nM.
As for `COc1cc(C(=O)NC[C@@](O)(c2cccc(F)c2)c2cc3c(c(-c4ccnc(C(F)F)c4Cl)n2)OC[C@]3(C)C(N)=O)cc2oc(C3CC3)nc12` [Example 567], the figure is less than 200 nM; as for `COc1cc(C(=O)NC[C@@](O)(c2cccc(F)c2)c2cc3c(c(-c4ccnc(C(F)F)c4Cl)n2)OC[C@]3(C)C(N)=O)cc2oc(C(F)F)nc12` [Example 568], less than 200 nM; as for `COc1cc(C(=O)NC[C@@](O)(c2ccc(F)cc2)c2cc3c(c(-c4ccnc(C(F)F)c4Cl)n2)OC[C@]3(C)C(N)=O)cc2cn(C3CC3)nc12` [Example 569], less than 200 nM.
`COc1cc(C(=O)NC[C@@](O)(c2ccc(F)cc2)c2cc3c(c(-c4ccnc(C(F)F)c4Cl)n2)OC[C@]3(C)C(N)=O)cc2cn(C3(F)CC3)nc12` [Example 570] displayed an EC50 of less than 200 nM.
`COc1cc(C(=O)NC[C@@](O)(c2ccc(F)cc2)c2cc3c(c(-c4ccnc(C(F)(F)F)c4F)n2)OC[C@]3(C)C(N)=O)cc2cn(C3CC3)nc12` [Example 571] registered an EC50 of less than 200 nM.
As to `COc1cc(C(=O)NC[C@@](O)(c2ccc(F)cc2)c2cc3c(c(-c4ccnc(C(F)(F)F)c4F)n2)OC[C@]3(C)C(N)=O)cc2cn(C(F)F)nc12` [Example 572], the EC50 is less than 200 nM.
As for `COc1cc(C(=O)NC[C@@](O)(c2ccc(F)cc2)c2cc3c(c(-c4ccnc(C(F)(F)F)c4F)n2)OC[C@]3(C)C(N)=O)cc2cn(C3(F)CC3)nc12` [Example 573], the figure is less than 200 nM.
The same measure for `COc1cc(C(=O)NC[C@@](O)(c2ccc(F)cc2)c2cc3c(c(-c4ccnc(C(F)(F)F)c4F)n2)OC[C@]3(C)C(N)=O)cc2oc(C3CC3)nc12` [Example 574]: less than 200 nM; for `COc1cc(C(=O)NC[C@](O)(c2cc3c(c(-c4ccnc(Cl)c4Cl)n2)OC[C@]3(C)C(N)=O)C2CC2)cn2cc(C3CC3)nc12` [Example 578]: less than 200 nM.
The same measure for `COc1cc(C(=O)NC[C@](O)(c2cc3c(c(-c4ccnc(C(F)(F)F)c4Cl)n2)OC[C@]3(C)C(N)=O)C2CC2)cn2cc(C3CC3)nc12` [Example 580]: less than 200 nM; for `COc1nccc(-c2nc([C@@](O)(CNC(=O)c3cc(OC)c4nc(C5CC5)cn4c3)C3CC3)cc3c2OC[C@]3(C)C(N)=O)c1Cl` [Example 583]: less than 200 nM; for `COc1nccc(-c2nc([C@@](O)(CNC(=O)c3cc(OC4CC4)c4nn(C5CC5)cc4c3)C(F)(F)F)cc3c2OC[C@]3(C)C(N)=O)c1Cl` [Example 586]: less than 200 nM.
As for `COc1nccc(-c2nc([C@@](O)(CNC(=O)c3cc(OC4CC4)c4nn(C(F)F)cc4c3)C(F)(F)F)cc3c2OC[C@]3(C)C(N)=O)c1Cl` [Example 587], the EC50 was less than 200 nM.
As for `COc1nccc(-c2nc([C@@](O)(CNC(=O)c3cc(OC4CC4)c4nn(C5(F)CC5)cc4c3)C(F)(F)F)cc3c2OC[C@]3(C)C(N)=O)c1Cl` [Example 588], the figure is less than 200 nM; as for `COc1nccc(-c2nc([C@@](O)(CNC(=O)c3cc(OC)c4nc(C5CC5)cn4c3)C(F)(F)F)cc3c2OC[C@]3(C)C(N)=O)c1Cl` [Example 589], less than 200 nM.
The same measure for `COc1nccc(-c2nc([C@@](O)(CNC(=O)c3cc(OC)n4nc(C5CC5)cc4c3)C(F)(F)F)cc3c2OC[C@]3(C)C(N)=O)c1Cl` [Example 590]: less than 200 nM.
As for `COc1nccc(-c2nc([C@@](O)(CNC(=O)c3cc(OC4CC4)c4nn(C(F)F)cc4c3)C3CC3)cc3c2OC[C@]3(C)C(N)=O)c1Cl` [Example 591], the figure is less than 200 nM; as for `COc1nccc(-c2nc([C@@](O)(CNC(=O)c3cc(OC4CC4)c4nn(C5(F)CC5)cc4c3)C3CC3)cc3c2OC[C@]3(C)C(N)=O)c1Cl` [Example 592], less than 200 nM.
The compound `C[C@]1(C(N)=O)COc2c1cc([C@@](O)(CNC(=O)c1cc(OC3CC3)c3nn(C4CC4)cc3c1)C(F)(F)F)nc2-c1ccnc(C(F)(F)F)c1Cl` [Example 593] gave an EC50 of less than 200 nM.
The same measure for `C[C@]1(C(N)=O)COc2c1cc([C@@](O)(CNC(=O)c1cc(OC3CC3)c3nn(C(F)F)cc3c1)C(F)(F)F)nc2-c1ccnc(C(F)(F)F)c1Cl` [Example 594]: less than 200 nM; for `C[C@]1(C(N)=O)COc2c1cc([C@@](O)(CNC(=O)c1cc(OC3CC3)c3nn(C4(F)CC4)cc3c1)C(F)(F)F)nc2-c1ccnc(C(F)(F)F)c1Cl` [Example 595]: less than 200 nM.
As for `COc1cc(C(=O)NC[C@](O)(c2cc3c(c(-c4ccnc(C(F)(F)F)c4Cl)n2)OC[C@]3(C)C(N)=O)C(F)(F)F)cc2cc(C3CC3)nn12` [Example 596], the figure is less than 200 nM; as for `COc1cc(C(=O)NC[C@](O)(c2cc3c(c(-c4ccnc(C(F)(F)F)c4Cl)n2)OC[C@]3(C)C(N)=O)C(F)(F)F)cc2oc(C(F)F)nc12` [Example 597], less than 200 nM; as for `COc1cc(C(=O)NC[C@](O)(c2cc3c(c(-c4ccnc(C(F)(F)F)c4Cl)n2)OC[C@]3(C)C(N)=O)C(F)(F)F)cn2cc(C3CC3)nc12` [Example 598], less than 200 nM.
As for `Cc1nccc(-c2nc([C@@](O)(CNC(=O)c3cc(OC4CC4)c4nn(C5CC5)cc4c3)C3CC3)cc3c2OC[C@]3(C)C(N)=O)c1Cl` [Example 600], the figure is less than 200 nM; as for `Cc1nccc(-c2nc([C@@](O)(CNC(=O)c3cc(OC4CC4)c4nn(C(F)F)cc4c3)C3CC3)cc3c2OC[C@]3(C)C(N)=O)c1Cl` [Example 601], less than 200 nM.
The compound `Cc1nccc(-c2nc([C@@](O)(CNC(=O)c3cc(OC4CC4)c4nn(C5(F)CC5)cc4c3)C3CC3)cc3c2OC[C@]3(C)C(N)=O)c1Cl` [Example 602] showed an EC50 of less than 200 nM.
As for `Cc1nccc(-c2nc([C@@](O)(CNC(=O)c3cc(OC4CC4)c4nn(C5CC5)cc4c3)c3cccc(F)c3)cc3c2OC[C@]3(C)C(N)=O)c1Cl` [Example 603], the figure is less than 200 nM; as for `Cc1nccc(-c2nc([C@@](O)(CNC(=O)c3cc(OC4CC4)c4nn(C(F)F)cc4c3)c3cccc(F)c3)cc3c2OC[C@]3(C)C(N)=O)c1Cl` [Example 604], less than 200 nM; as for `Cc1nccc(-c2nc([C@@](O)(CNC(=O)c3cc(OC4CC4)c4nn(C5(F)CC5)cc4c3)c3cccc(F)c3)cc3c2OC[C@]3(C)C(N)=O)c1Cl` [Example 605], less than 200 nM.
The same measure for `COc1nccc(-c2nc([C@@](O)(CNC(=O)c3cc(OC4CC4)n4nc(C5CC5)cc4c3)C3CC3)cc3c2OC[C@]3(C)C(N)=O)c1Cl` [Example 606]: less than 200 nM.
